Consider four compounds from patent US3991053A.

Experiment [1] deals with Salmonella choleraesuis. The experiment is described as follows: In vivo protection of mice infected intraperitoneally with Salmonella choleraesuis. The settings on record: multiple dosing, 25 mg./kg., percentage of animals which survive; for Percentage protection Sal. choleraesuis SC: subcutaneous (SC). Here is the method:
(§1) In determining the in vivo activity of the compounds of the invention, the test compound is administered to mice which have been infected by intraperitoneal injection of a lethal inoculum of pathogenic bacteria. The test compound is administered using a multiple dosing regimen, using either the oral (PO) or the subcutaneous (SC) route. The inoculum of bacteria varies from one to about ten times the amount needed to kill 100% of the mice, under the conditions of the test. At the end of the test, the activity of a compound is assessed by counting the number of survivors among the treated animals, and expressing the activity of a compound as the percentage of animals which survive. In Table I, in vivo activities of several of the compounds of this invention against Salmonella choleraesuis and Pasteurella multocida are presented. | *The dosage of test compound in the protection studies using Salmonnella | choleraesuis was 25 mg./kg. of body weight, and using Pasteurella | multocida it was 50 mg./kg. of body weight.

In experiment [2] the test system is Escherichia coli. The experiment is described as follows: In vitro MIC, two-fold serial dilution in Brain-Heart Infusion Broth, Escherichia coli. The settings on record: read-out: MIC (minimum inhibitory concentration) Esch. coli.
Experiment [3] relates to Pasteurella multocida. The experiment in a line: In vitro MIC, two-fold serial dilution in Brain-Heart Infusion Broth, Pasteurella multocida. The settings on record: read-out: MIC (minimum inhibitory concentration) Past. multocida.
Experiment [4] concerns Streptococcus pyogenes. The experiment is described as follows: In vitro MIC, two-fold serial dilution in Brain-Heart Infusion Broth, Streptococcus pyogenes. The settings on record: read-out: MIC (minimum inhibitory concentration) Strep. pyogenes.
The test system of experiment [5] is Salmonella choleraesuis. The experiment in a line: In vitro MIC, two-fold serial dilution in Brain-Heart Infusion Broth, Salmonella choleraesuis. The settings on record: Salmonella enterica, read-out: MIC (minimum inhibitory concentration) Sal. choleraesuis.
Experiment [6] relates to Pasteurella multocida. The experiment is described as follows: In vivo protection of mice infected intraperitoneally with Pasteurella multocida. The conditions noted are these: multiple dosing, 50 mg./kg., percentage of animals which survive; for Percentage protection Past. multocida SC: subcutaneous (SC). How it is done:
as §1

The test system of experiment [7] is Treponema hyodysenteriae. The experiment is described as follows: In vitro MIC, two-fold serial dilution in Brain-Heart Infusion Broth, Treponema hyodysenteriae. The settings on record: Brachyspira hyodysenteriae, read-out: MIC (minimum inhibitory concentration) Trep. hyodysenteriae.

Molecules are shown by their SMILES. ≈ marks a conversion by molar mass, not a printed value.

Turning to `CC1(OCc2ccccc2)OCc2c1[n+]([O-])c1ccccc1[n+]2[O-]` (centres unmarked) [1-Benzyloxy-1-methyl-1,3-dihydrofuro[3,4-b]quinoxaline 4,9-Dioxide], the “Percentage protection Sal. choleraesuis PO” value in experiment [1] came to 40%. Further, the “Percentage protection Sal. choleraesuis SC” value in experiment [1] is 60%. For the same compound, the MIC in experiment [2] came to 12.5 µg/mL (≈ 38.5 µM); in experiment [3] it was 3.12 µg/mL (≈ 9.62 µM); in experiment [4], 6.25 µg/mL (≈ 19.3 µM); in experiment [5], 12.5 µg/mL (≈ 38.5 µM).

Consider `CCOC1(C)OCc2c1[n+]([O-])c1ccccc1[n+]2[O-]` (centres unmarked) [1-Ethoxy-1-methyl-1,3-dihydrofuro[3,4-b]quinoxaline 4,9-Dioxide], for which the “Percentage protection Sal. choleraesuis PO” value in experiment [1] is on record as 70%. Besides, the “Percentage protection Sal. choleraesuis SC” value in experiment [1] amounted to 50%. Further, the MIC worked out at 12.5 µg/mL (≈ 47.7 µM) in experiment [2], 12.5 µg/mL (≈ 47.7 µM) in experiment [3], 3.12 µg/mL (≈ 11.9 µM) in experiment [4] and 12.5 µg/mL (≈ 47.7 µM) in experiment [5].

In the case of `CC1(O)OCc2c1[n+]([O-])c1ccccc1[n+]2[O-]` (centres unmarked) [1-Hydroxy-1-methyl-1,3-dihydrofuro[3,4-b]quinoxaline 4,9-dioxide], the “Percentage protection Sal. choleraesuis PO” value in experiment [1] was found to be 100%. Also, in experiment [1], the “Percentage protection Sal. choleraesuis SC” value is reported as 100%. Moreover, the “Percentage protection Past. multocida PO” value in experiment [6] is on record as 100%. Further, the “Percentage protection Past. multocida SC” value in experiment [6] came to 100%. Further, the MIC is 1.56 µg/mL (≈ 6.66 µM) in experiment [2]; 12.5 µg/mL (≈ 53.4 µM) in experiment [3]; 0.78 µg/mL (≈ 3.33 µM) in experiment [4]; 1.56 µg/mL (≈ 6.66 µM) in experiment [5]; 0.09 µg/mL (≈ 0.384 µM) in experiment [7].

As to `COC1(C)OCc2c1[n+]([O-])c1ccccc1[n+]2[O-]` (centres unmarked) [1-Methoxy-1-methyl-1,3-dihydrofuro[3,4-b]quinoxaline 4,9-Dioxide], the “Percentage protection Sal. choleraesuis PO” value in experiment [1] was found to be 100%. In addition, the “Percentage protection Sal. choleraesuis SC” value in experiment [1] was determined as 100%. The “Percentage protection Past. multocida PO” value in experiment [6] amounted to 90%. Besides, the “Percentage protection Past. multocida SC” value in experiment [6] stood at 100%. The MIC was 3.12 µg/mL (≈ 12.6 µM) in experiment [2], 3.12 µg/mL (≈ 12.6 µM) in experiment [3], 0.78 µg/mL (≈ 3.14 µM) in experiment [4] and 1.56 µg/mL (≈ 6.28 µM) in experiment [5].
